Tests used:
[1] = system: HCT116; test: MTT screening assay, HCT116; type: cell-based; conditions: Homo sapiens, HCT-116, 72 h incubation
Source text: (§1) The ability of newly synthesized indole phytoalexins to suppress cell proliferation was screened in vitro on eight cancer cell lines including human colorectal carcinoma (Caco-2 and HCT116), human cervical cancer (HeLa), human breast adenocarcinoma (MCF-7, MDA-MB-231), human alveolar adenocarcinoma (A549) and human leukemic T cell lymphoma (Jurkat), and two non-cancer cell lines (MCF-10A, Cos-7).
(§2) The cell lines used for this study were Caco-2 (human colorectal adenocarcinoma cell line, American Type Culture Collection, Manassas, VA, USA (ATCC)), HCT116 (human colorectal carcinoma cells European Collection of Authenticated Cell Cultures, Salisbury, UK (ECACC)), HeLa (human cervical tumor cells, ECACC), MCF-7 (human breast tumor cells, ECACC), MDA-MB-231 (human breast tumor cells, ATCC), A549 (human lung carcinoma cells, ATCC), BLM (human melanoma lung metastases, a gift from prof. K. Smetana, Institute of Anatomy, Charles University in Prague), Jurkat (human leukemia cell line, ECACC), Cos-7 (immortalized monkey kidney fibroblasts, ATCC) and MCF-10A (human mammary epithelial cells, ATCC). Caco-2, MCF-7, BLM, Cos-7 and A549 cells were cultured in Dulbecco’s Modified Eagle’s Medium (DMEM) with high glucose and sodium pyruvate (GE Healthcare, Piscataway, NJ, USA); HCT116 lines, HeLa, MDA-MB-231 and Jurkat were cultured in RPMI-1640 medium; and MCF10A cells were cultured in high glucose DMEM/F12 (Dulbecco’s Modified Eagle’s Medium F12). The media were enriched with 10% fetal bovine serum (FBS) and a 1% solution of a mixture of antibiotics and antimycotics 1× HyClone™ (GE Healthcare, Chicago, IL, USA). DMEM/F12 medium was supplemented with epidermal growth factor (EGF) (20 ng/mL final), hydrocortisone (0.5 μg/mL final) and insulin (10 μg/mL final) (Sigma-Aldrich Chemie, Steinheim, Germany). The cells were placed in an incubator at 37 °C with humidified air containing 5% CO2.
(§3) The MTT assay is a colorimetric method used to quantify the metabolic activity of cells. MTT (3-(4,5-di-methylthiazol-2-yl)2,5-diphenyltetrazolium bromide) (Sigma-Aldrich Chemie, Steinheim, Germany) is reduced by oxidoreductases in the cytosol of cells to light-absorbing formazan, the presence of which can be measured spectrophotometrically and determines the half-maximal inhibitory concentration (IC50). A549 cells were seeded in […] culture plates at a density of 5 × 10^3 per well. […]
(§4) We also incubated the cells with chloroquine at concentrations of 5–20 µM, which was added 1 h before the addition of the test substance, and cisplatin at concentrations of 3–10 µM. […] After 24 h, the absorbance was measured at a wavelength of 540 nm using an automated Cytation™ 3 Cell Imaging Multi-Mode Reader (Biotek, Winooski, VT, USA). […]

[2] = system: HeLa; test: MTT screening assay, HeLa; type: cell-based; conditions: Homo sapiens, 72 h incubation
Source text: as §1, §2, §3, §4

[3] = system: Cos-7; test: MTT screening assay, Cos-7 non-cancer cells; type: cell-based, monkey; conditions: Primates, 72 h incubation
Source text: as §1, §2, §3, §4

[4] = system: glutathione-S-transferase (GST); test: GST activity in treated A549 cells; type: cell-based, human; conditions: A549, 20 µM
Source text: Glutathione is an important intracellular molecule involved in carcinogen detoxification. On the other hand, its elevated state in cancer cells is often associated with resistance to chemotherapy. […] Because high levels of GSH are associated with cancer cell resistance, the GHS-depleting effect of compound 49 could be interesting due to new cancer chemosensitizer development. In the case of GST and GR, we hypothesize that an increase in the activity of both enzymes may be a compensatory mechanism induced by GSH depletion.
Both floating and adherent A549 cells were harvested at 24, 48, and 72 h after treatment with compound 49 (20 µM). SOD determination kit, Glutathione Peroxidase Cellular Activity Assay kit, Glutathione Reductase Assay Kit and Glutathione-S-transferase (GST) Assay Kit (all Sigma Aldrich, Germany) were used for the detection of relevant enzyme activity. Reduced glutathione (GSH) content was measured by the method originally described by Floreani et al.. Assays were performed on an M 501 single beam UV/VIS spectrophotometer (Spectronic Camspec Ltd., Leeds, United Kingdom). All measured parameters were calculated per milligram or gram of protein determined using the bicinchoninic acid assay.

CC(C)(C)OC(=O)n1cc(CNC(=O)Nc2ccc(NC(=O)NCc3cn(C(=O)OC(C)(C)C)c4ccccc34)cc2)c2ccccc21 [Compound 49, N,N′-(1,4-phenylene)bis{N′-[1-(tert-butoxycarbonyl)indol-3-yl]methyl (urea)}]
IC50 [1]: 8.8 ± 0.6 µM | IC50 [2]: 8.9 ± 0.2 µM | IC50 [3]: > 100 µM | GST ([4]; 24 h): 3.540 ± 1.07 μkat/mg Prot | GST ([4]; 48 h): 2.580 ± 0.44 μkat/mg Prot | GST ([4]; 72 h): 5.060 ± 0.52 μkat/mg Prot
